Test results: patent US8574831B2, “Mutational profiles in HIV-1 reverse transcriptase correlated with phenotypic drug resistance” (Virco N.V., priority 2000, dated 2013)

Legend:
[1] = test system: HIV with mutations in the reverse transcriptase gene sequence; experiment: Phenotypic fold resistance to reverse transcriptase inhibitors, RT mutations at positions 101, 103, 181, 190 (Examples 4-7); type: cell-based, HIV-1
Method: As is the case with the genotyping assays, the recombinant virus assay starts with the amplification of viral target sequences by means of PCR. The amplicons are incorporated into a proviral laboratory clone with sequences homologous to those present in the amplicon deleted. This generates a stock of chimeric viruses. The viruses are tested for their ability to grow in the presence of different concentrations of drugs. Results are obtained by calculating IC50 values for each inhibitor and by reporting the results as IC50 values, expressed in μM concentrations, or by computing the ratio of the IC50 values found for the chimeric virus to the IC50 values found for a wild type susceptible laboratory virus tested in parallel. In the latter case, resistance is expressed as “fold-resistance” compared to a wild-type susceptible HIV-1 strain. In order to meet the need for high-volume testing and a short turn-around time for an individual test, the latest generation of phenotyping assays has undergone further modifications. The use of reporter gene systems for susceptibility testing allows the implementation of laboratory automation and standardization. See Pauwels, et al., J. Virol. Methods 20, 309-321 (1998); Paulous, S., et al., International Workshop on HIV Drug Resistance, Treatment Strategies and Eradication, St. Petersburg, Fla., USA. Abstr. 46 (1997); and Deeks, S. G., et al., 2nd International Workshop on HIV Drug Resistance and Treatment Strategies, Lake Maggiore, Italy. Abstr. 53 (1998).
The methods of monitoring HIV-1 drug resistance, may also be used in combination with phenotypic drug resistance testing of viral isolates. For example, in one embodiment, a phenotypic test is utilized that is based upon the construction of chimeric HIV-1 strains composed of the protease (PR) and reverse transcriptase (RT) gene sequences which are isolated and amplified from the patient viral RNA. These strains may subsequently be recombined inside CD4+ T cells with a standard laboratory isogenic (HXB2) HIV-1 DNA construct from which the PR/RT gene sequences were deleted. The recombinant strains may then be grown in the presence of the above-mentioned antiviral drugs and the susceptibility of the viral isolates may be expressed as fold-change value of the IC50 of the drug on the patient isolates over the IC50 of the drug on a wild-type laboratory reference strain.
(§1) Overview of the mean fold increase in resistance and the effect of the 101 mutations in the HIV reverse transcriptase gene sequence. The fold increase in resistance is calculated from the increase in the mean IC50 of the drug relative to the mean IC50 of the same drug for a wild-type reference laboratory HIV-1 strain. The effect of the mutations was investigated on Nevirapine, Delavirdine and Efavirenz.
as §1, with “103” for “101”, “strain.” for “strain. The effect of the mutations was investigated on Nevirapine, Delavirdine and Efavirenz.”
as §1, with “181” for “101”, “strain.” for “strain. The effect of the mutations was investigated on Nevirapine, Delavirdine and Efavirenz.”
as §1, with “190” for “101”, “strain.” for “strain. The effect of the mutations was investigated on Nevirapine, Delavirdine and Efavirenz.”

[2] = test system: HIV-1 HXB2-D variants with site-directed RT mutations; experiment: MT-4 cell CPE protection assay, HIV-1 variants constructed by site-directed mutagenesis (Example 2); type: cell-based
Method: Mutations in the RT coding region were created by site-directed mutagenesis of a wild-type HXB2-D EcoRl-Pstl restriction enzyme fragment, encompassing the HIV-1 pol gene and cloned into pGEM3 (Promega). Single and multiple nucleotide changes were introduced into RT using the EXSITE™ mutagenesis kit (Strategene). All mutant clones were verified by DNA sequence analysis of the entire RT. PCR fragments were prepared from the mutated clones and the altered RT coding regions were transferred into the HIV-1 HXB2-D genetic background by homologous recombination as described above. The susceptibility of these recombinant viruses to nucleoside analogues was subsequently determined by the MT-4 cell CPE protection assay. Id.

Structure (SMILES)	fold increase in resistance compared to a laboratory reference strain (WT) ([1]; RT genotype 101E)	fold increase in resistance compared to a laboratory reference strain (WT) ([1]; RT genotype 101H)	fold increase in resistance compared to a laboratory reference strain (WT) ([1]; RT genotype 101P)	fold increase in resistance compared to a laboratory reference strain (WT) ([1]; RT genotype 101Q)	mean fold increase in resistance compared to a laboratory reference strain (WT) ([1]; RT genotype 103H)	mean fold increase in resistance compared to a laboratory reference strain (WT) ([1]; RT genotype 103N)	mean fold increase in resistance compared to a laboratory reference strain (WT) ([1]; RT genotype 103R)	mean fold increase in resistance compared to a laboratory reference strain (WT) ([1]; RT genotype 103S)	mean fold increase in resistance compared to a laboratory reference strain (WT) ([1]; RT genotype 103T)	fold increase in resistance compared to a laboratory reference strain (WT) ([1]; RT genotype 181C)	fold increase in resistance compared to a laboratory reference strain (WT) ([1]; RT genotype 181I)	fold increase in resistance compared to a laboratory reference strain (WT) ([1]; RT genotype 181S)	fold increase in resistance compared to a laboratory reference strain (WT) ([1]; RT genotype 190A)	fold increase in resistance compared to a laboratory reference strain (WT) ([1]; RT genotype 190E)	fold increase in resistance compared to a laboratory reference strain (WT) ([1]; RT genotype 190Q)	fold increase in resistance compared to a laboratory reference strain (WT) ([1]; RT genotype 190S)	fold increase in resistance compared to a laboratory reference strain (WT) ([1]; RT genotype WT (Table 5))	mean fold increase in resistance compared to a laboratory reference strain (WT) ([1]; RT genotype WT (Table 6))	fold increase in resistance compared to a laboratory reference strain (WT) ([1]; RT genotype WT (Table 7))	fold increase in resistance compared to a laboratory reference strain (WT) ([1]; RT genotype WT (Table 8))	also measured
CC(C)Nc1cccnc1N1CCN(C(=O)c2cc3cc(NS(C)(=O)=O)ccc3[nH]2)CC1 [Delavirdine, delavirdine]	7.7 fold	45.5 fold	162.4 fold	1.2 fold	191.6 fold	176.1 fold	1.6 fold	18.3 fold	84.5 fold	82.5 fold	81.7 fold	147.9 fold	2.3 fold	131.1 fold	34.0 fold	1.9 fold	1.8 fold	1.8 fold	1.8 fold	1.8 fold	
O=C1Nc2ccc(Cl)cc2[C@@](C#CC2CC2)(C(F)(F)F)O1 [Efavirenz, efavirenz]	2.4 fold	3.5 fold	84.2 fold	0.9 fold	52.7 fold	486.8 fold	0.6 fold	8.4 fold	2.8 fold	2.0 fold	2.0 fold	8.7 fold	24.8 fold	385.3 fold	401.1 fold	483.6 fold	0.9 fold	0.9 fold	0.9 fold	0.9 fold	
Cc1ccnc2c1NC(=O)c1cccnc1N2C1CC1 [Nevirapine, nevirapine]	4.9 fold	24.0 fold	53.4 fold	1.9 fold	69.4 fold	48.1 fold	1.1 fold	45.4 fold	43.7 fold	56.0 fold	63.8 fold	82.8 fold	60.7 fold	40.0 fold	52.7 fold	75.9 fold	1.3 fold	1.3 fold	1.3 fold	1.3 fold	
Nc1nc(NC2CC2)c2ncn([C@H]3C=C[C@@H](CO)C3)c2n1 [abacavir, 4-[(2-amino-6-cyclopropyl-amino)-9H-purin-9-yl]-2-cyclopentene-1-methanol]																					susceptibility ([2]; 69S-[S-S] insert plus AZT resistance mutations (210W and 215Y)): decreased susceptibility
O=c1[nH]cnc2c1ncn2[C@H]1CC[C@@H](CO)O1 [ddl, didanosine]																					resistance ([2]; T69A or V75M in a background of AZT mutations): little or no resistance
